# From US20220098154A1 (IDEAYA Biosciences, Inc., priority 2019, published 2022)
# Biological target: T1, Pol theta polymerase domain (residues 1819-2590) (Homo sapiens, UniProt O75417)
# T1 construct: Pol theta polymerase domain (residues 1819-2590)
# T1 sequence (O75417 1819-2590): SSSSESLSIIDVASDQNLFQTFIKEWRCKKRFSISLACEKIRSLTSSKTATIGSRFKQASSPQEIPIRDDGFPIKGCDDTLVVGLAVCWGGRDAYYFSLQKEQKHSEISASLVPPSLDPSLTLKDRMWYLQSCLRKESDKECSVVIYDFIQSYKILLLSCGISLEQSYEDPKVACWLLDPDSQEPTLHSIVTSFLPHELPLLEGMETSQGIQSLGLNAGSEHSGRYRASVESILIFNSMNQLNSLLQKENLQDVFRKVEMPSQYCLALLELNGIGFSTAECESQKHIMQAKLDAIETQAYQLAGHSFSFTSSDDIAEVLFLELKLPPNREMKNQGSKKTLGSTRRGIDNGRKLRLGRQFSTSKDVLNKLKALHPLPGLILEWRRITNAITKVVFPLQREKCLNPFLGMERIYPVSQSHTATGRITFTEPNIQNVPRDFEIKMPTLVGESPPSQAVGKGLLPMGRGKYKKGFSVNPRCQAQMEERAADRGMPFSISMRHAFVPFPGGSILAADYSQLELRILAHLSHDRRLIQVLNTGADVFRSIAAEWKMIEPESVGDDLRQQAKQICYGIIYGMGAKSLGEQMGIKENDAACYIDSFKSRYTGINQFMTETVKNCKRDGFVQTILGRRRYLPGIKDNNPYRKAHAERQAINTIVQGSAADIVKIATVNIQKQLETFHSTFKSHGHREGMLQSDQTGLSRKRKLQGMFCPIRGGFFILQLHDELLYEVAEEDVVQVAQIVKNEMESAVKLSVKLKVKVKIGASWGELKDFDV
# Assay: Primer extension assay: inhibition of polymerase activity of Pol theta (molecular beacon fluorescence)
# Assay type: biochemical
# Conditions: Pol theta polymerase domain 4 nM; 15 min pre-incubation; fluorescence change over 30 min (ex 485 nm, em 535 nm); 11-point dilution series
# Protocol: The ability of the compounds of Formula (I) to inhibit polymerase activity of Pol theta was determined using the assay described below.
# A mixture of 20 uL of Pol theta polymerase domain (residues 1819-2590) at a final concentration of 4 nM in assay buffer (20 m M TRIS, pH 7.80, 50 mM KCl, 10 mM MgCl2, 1 mM DTT, 0.01% BSA, 0.01% Tween20) was added to test compounds (11-point dilution series of test compounds) except the low control wells without test compounds. The above enzyme and test compound inhibitor mixture was then incubated at room temperature for 15 min. An equal volume (20 μl) of dNTP substrate mixture (48 μM) and primed molecular beacon DNA (obtained by annealing template SEQ ID NO 2: (5′-CCTTCCTCCCGTGTCTTG-TACCTTCCCGTCA-GGAGGAAGG-3′) with 5′-TAMRA and 3′-BHQ and primer DNA (SEQ ID NO: 3; 5′-GACGGGAAGG-3′) in 10 mM Tris-HCl pH 8.0, 100 mM NaCl buffer) (96 nM) in assay buffer was added to all the test wells. The inhibition activity was measured by monitoring the fluorescence change over 30 min at 535 nm upon excitation at 485 nm. The high control (DMSO with enzyme) with high fluorescence intensity represents no inhibition of polymerase reaction while the low control (DMSO with buffer) with low fluorescence intensity represents full inhibition of polymerase activity. Slope of the reaction progress curves were used to calculate the rate of polymerization. The rates were used to determine the percent inhibition using a four-parameter inhibition model to generate IC50, Hill slope and max inhibition.
row,SMILES,IC50 [nM]
1,"Cc1cc(NCC(=O)N(C)c2ccccc2)nc(C)c1Cl [Example 34, 2-[(5-chloro-4,6-dimethylpyridin-2-yl)amino]-N-methyl-N phenylacetamide]",500 to 1000
2,"Cc1c(Cl)cnc(NCC(=O)N(C)c2ccccc2)c1C#N [Example 37, 2-(5-chloro-3-cyano-4-methylpyridin-2-ylamino)-N-methyl-N-phenylacetamide]",200 to 500
3,"Cc1nc(NCC(=O)N(C)c2ccccc2)c(C#N)cc1Cl [Example 38, 2-(5-chloro-3-cyano-6-methylpyridin-2-ylamino)-N-methyl-N-phenylacetamide]",200 to 500
4,"CN(C(=O)CNc1nc(C(F)(F)F)cc(C(F)(F)F)c1C#N)c1ccc(F)cc1C#N [Example 49, 2-((3-cyano-4,6-bis(trifluoromethyl)pyridin-2-yl)amino)-N-(2-cyano-4-fluorophenyl)-N-methylacetamide]",500 to 1000
5,"Cc1coc2ccc(N(C)C(=O)CNc3nc(C(F)(F)F)cc(C(F)(F)F)c3C#N)cc12 [Example 51, 2-((3-cyano-4,6-bis(trifluoromethyl)pyridin-2-yl)amino)-N-methyl-N-(3-methylbenzofuran-5-yl)acetamide]",< 200
6,"Cc1cc2cc(N(C)C(=O)CNc3nc(C(F)(F)F)cc(C(F)(F)F)c3C#N)ccc2o1 [Example 52, 2-((3-cyano-4,6-bis(trifluoromethyl)pyridin-2-yl)amino)-N-methyl-N-(2-methylbenzofuran-5-yl)acetamide]",< 200
7,"CN(C(=O)CNc1nc(C(F)(F)F)cc(C(F)(F)F)c1C#N)c1ccc2sccc2c1 [Example 53, N-(benzo[b]thiophen-5-yl)-2-((3-cyano-4,6-bis(trifluoromethyl)pyridin-2-yl)-amino)-N-methylacetamide]",< 200
8,"CN(C(=O)CNc1nc(C(F)(F)F)cc(C(F)(F)F)c1C#N)c1ccc2c(cnn2C)c1 [Example 54, 2-((3-cyano-4,6-bis(trifluoromethyl)pyridin-2-yl)amino)-N-methyl-N-(1-methyl-1H-indazol-5-yl)acetamide]",< 200
9,"CN(C(=O)CNc1nc(C(F)(F)F)cc(C(F)(F)F)c1C#N)c1ccc2c(ccn2C)c1 [Example 55, 2-((3-cyano-4,6-bis(trifluoromethyl)pyridin-2-yl)amino)-N-methyl-N-(1-methyl-1H-indol-5-yl)acetamide]",< 200
10,"CN(C(=O)CNc1nc(C(F)(F)F)cc(C(F)(F)F)c1C#N)c1ccc2[nH]ccc2c1 [Example 56, 2-((3-cyano-4,6-bis(trifluoromethyl)pyridin-2-yl)amino)-N-(1H-indol-5-yl)-N-methylacetamide]",< 200
11,"CN(C(=O)CNc1nc(C(F)(F)F)cc(C(F)(F)F)c1C#N)c1ccc2ncncc2c1 [Example 57, 2-((3-cyano-4,6-bis(trifluoromethyl)pyridin-2-yl)amino)-N-methyl-N-(quinazolin-6-yl)acetamide]",200 to 500
12,"CN(C(=O)CNc1nc(C(F)(F)F)cc(C(F)(F)F)c1C#N)c1ccc2nccnc2c1 [Example 58, 2-((3-cyano-4,6-bis(trifluoromethyl)pyridin-2-yl)amino)-N-methyl-N-(quinoxalin-6-yl)acetamide]",< 200
13,"CC(=O)N1Cc2ccc(N(C)C(=O)CNc3nc(C(F)(F)F)cc(C(F)(F)F)c3C#N)cc2C1 [Example 59, N-(2-acetylisoindolin-5-yl)-2-((3-cyano-4,6-bis(trifluoromethyl)pyridin-2-yl)amino)-N-methylacetamide]",500 to 1000
14,"CN(C(=O)CNc1nc(C(F)(F)F)cc(C(F)(F)F)c1C#N)c1cc(Cl)cc(Cl)c1 [Example 60, 2-((3-cyano-4,6-bis(trifluoromethyl)pyridin-2-yl)amino)-N-(3,5-dichlorophenyl)-N-methylacetamide]",< 200
15,"CN(C(=O)CNc1nc(C(F)(F)F)cc(C(F)(F)F)c1C#N)c1ccc(Br)cc1 [Example 61, N-(4-bromophenyl)-2-((3-cyano-4,6-bis(trifluoromethyl)pyridin-2-yl)amino)-N-methylacetamide]",< 200

# More lines, now with the values ahead:
row,IC50 [nM],SMILES
1,< 200,"Cc1nc(OCC(=O)N(C)c2ccc(Cl)c(Cl)c2)c(C#N)c(C)c1Cl [Example 33, 2-(5-chloro-3-cyano-4,6-dimethylpyridin-2-yloxy)-N-(3,4-dichlorophenyl)-N-methylacetamide]"
2,< 200,"Cc1nc(OCC(=O)N(C)c2ccc(Br)cc2)c(C#N)c(C)c1Cl [Example 35, N-(4-bromophenyl)-2-[(5-chloro-3-cyano-4,6-dimethylpyridin-2-yl)oxy]-N-methylacetamide]"
3,< 200,"Cc1nc(NCC(=O)N(C)c2ccc(Br)cc2)c(C#N)c(C)c1Cl [Example 39, N-(4-bromophenyl)-2-(5-chloro-3-cyano-4,6-dimethyl-pyridin-2-ylamino)-N-methylacetamide]"
4,< 200,"Cc1nc(NCC(=O)N(C)c2ccc(Cl)cc2)c(C#N)c(C)c1Cl [Example 40, 2-(5-chloro-3-cyano-4,6-dimethylpyridin-2-ylamino)-N-(4-chlorophenyl)-N-methylacetamide]"
5,< 200,"Cc1nc(OCC(=O)N(C)c2ccc(Cl)cc2)c(C#N)c(C)c1Cl [Example 41, 2-[(5-chloro-3-cyano-4,6-dimethylpyridin-2-yl)oxy]-N-(4-chloro-phenyl)-N-methylacetamide]"
6,< 200,"Cc1nc(NCC(=O)N(C)c2ccc(F)cc2)c(C#N)c(C)c1Cl [Example 42, 2-(5-chloro-3-cyano-4,6-dimethylpyridin-2-ylamino)-N-(4-fluorophenyl)-N-methylacetamide]"
7,< 200,"Cc1nc(OCC(=O)N(C)c2ccc(F)cc2)c(C#N)c(C)c1Cl [Example 43, 2-[(5-chloro-3-cyano-4,6-dimethylpyridin-2-yl)oxy]-N-(4-fluoro-phenyl)-N-methylacetamide]"
8,< 200,"CN(C(=O)CNc1nc(C(F)(F)F)cc(C(F)(F)F)c1C#N)c1ccc2occc2c1 [Example 46, N-(benzofuran-5-yl)-2-((3-cyano-4,6-bis(trifluoromethyl)pyridin-2-yl)amino)-N-methylacetamide]"
9,< 200,"[2H]C([2H])([2H])N(C(=O)CNc1nc(C(F)(F)F)cc(C(F)(F)F)c1C#N)c1ccc(F)cc1 [Example 47, 2-((3-cyano-4,6-bis(trifluoromethyl)pyridin-2-yl)amino)-N-(4-fluorophenyl)-N-(methyl-d3)acetamide]"
10,< 200,"CN(C(=O)CNc1nc(C(F)(F)F)cc(C(F)(F)F)c1C#N)c1ccc(F)cc1Cl [Example 48, N-(2-chloro-4-fluorophenyl)-2-((3-cyano-4,6-bis(trifluoromethyl)pyridin-2-yl)-amino)-N-methylacetamide]"
11,< 200,"CN(C(=O)CNc1nc(C(F)(F)F)cc(C(F)(F)F)c1C#N)c1ccc2c(c1)ncn2C [Example 50, 2-((3-cyano-4,6-bis(trifluoromethyl)pyridin-2-yl)amino)-N-methyl-N-(1-methyl-1H-benzo[d]imidazol-5-yl)acetamide]"
